These results are taken from patent US20100120775A1, “Farnesoid X Receptor Agonists” (SMITHKLINE BEECHAM CORPORATION, priority 2006, published 2010).

Test [1] deals with T1, Human FXRα Ligand Binding Domain (Homo sapiens, UniProt Q96RI1).
T1 construct: polyhistidine (pRSET-A vector) (N); made in house; host or cells: E. coli BL21 (DE3), pRSET-A vector
T1 sequence (Q96RI1 237-472 isoform Q96RI1-2): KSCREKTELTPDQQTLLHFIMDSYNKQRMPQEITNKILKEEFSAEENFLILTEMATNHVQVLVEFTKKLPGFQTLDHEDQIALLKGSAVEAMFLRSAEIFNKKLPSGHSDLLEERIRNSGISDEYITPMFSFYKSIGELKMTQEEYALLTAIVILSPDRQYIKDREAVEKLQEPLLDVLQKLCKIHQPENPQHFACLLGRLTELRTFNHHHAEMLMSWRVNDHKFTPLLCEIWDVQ
The test can be described thus: FXR Cofactor Binding Assay (FXR LBD / SRC-1 peptide, time resolved fluorescence). Conditions: FXRα LBD with biotinylated SRC-1 (LCD2, 676-700) peptide; for EC50: read-out: Activity (pEC50) (converted). An excerpt:
Determination of a ligand mediated cofactor peptide interaction to quantify ligand binding to the nuclear receptor Farnesoid X Receptor (FXR). The method measures the ability of putative ligands to modulate the interaction between the purified bacterial expressed FXRα ligand binding domain (LBD) and a synthetic biotinylated peptide based on residues 676-700 of steroid receptor coactivator-1 (SRC-1) (LXXLL-containing domain-2 where L is the amino acid leucine and X indicates any other amino acid (LCD2), 676-700). The sequence of the SRC-1 peptide used is as published in Iannone, M. A., et al., 2001 Cytometry 44:326-337 where the N-terminus was biotinylated (B) and the C-terminus was amidated. Detection of the associated complex was measured by time resolved fluorescence (TRF). The purified LBD of FXR was labeled with biotin then mixed with stoichiometric amounts of allophycocyanin (APC) labeled streptavidin (Molecular Probes). The biotinylated peptide was then mixed with a ½ stoichiometric amount of europium labeled streptavidin (Wallac Inc). Each was then blocked with a 5 fold excess of biotin and allowed to equilibrate for 15 min. Equimolar amounts of receptor and peptide were mixed together and were allowed to equilibrate for at least 30 min prior to the addition to either a variable or constant concentrations of the sample for which the affinity is to be determined. After equilibration, the time-resolved fluorescent signal was quantitated using a fluorescent plate reader. The affinity of the test compound was estimated from a plot of fluorescence versus concentration of test compound added.
A basal level of FXR: peptide formation is observed in the absence of added ligand. Ligands that promote the complex formation induce a concentration-dependent increase in time-resolved fluorescent signal. Compounds which bind equally well to both monomeric FXR and to the FXR: peptide complex would be expected to give no change in signal, whereas ligands which bind preferentially to the monomeric receptor would be expected to induce a concentration-dependent decrease in the observed signal.
Human FXRα Ligand Binding Domain (FXRα LBD) was expressed in E. coli strain BL21 (DE3) as an amino-terminal polyhistidine tagged fusion protein. Expression was under the control of an isopropyl-13-D-thiogalactopyranoside (IPTG) inducible T7 promoter. DNA encoding this recombinant protein is subcloned into the pRSET-A expression vector (Invitrogen). The coding sequence of Human FXRα LBD was derived from Genbank accession number U 68233 (amino acids 237 to 472).
Routinely, 30-40 g cell paste (equivalent to 2-3 liters of the fermentation batch) was resuspended in 200-250 mL Tris buffered saline (TBS), pH 7.2 (25 mM Tris-hydroxymethylamino methane (Tris), 150 mM sodium chloride). Cells were lysed by passing 3 times through a French Press and cell debris was removed by centrifugation (30 minutes, 20,000×gravity, 4° C.). The cleared supernatant was filtered through course pre-filters, and TBS, pH 7.2, 500 mM imidazole was added to obtain a final imidazole concentration of 50 mM. This lysate was loaded onto a column (6×8 cm) packed with Sepharose [Ni^|| charged]Chelation resin (Pharmacia) and pre-equilibrated with TBS pH 7.2/50 mM imidazole. After washing to baseline absorbance with equilibration buffer, the column was washed with one column volume of TBS pH 7.2 containing 90 mM imidazole. FXRα LBD was eluted directly with 365 mM imidazole. Column fractions were pooled and dialyzed against TBS, pH 7.2, containing 0.5 mM EDTA and 5 mM DTT. The dialyzed protein sample was concentrated using Centri-prep 10 K (Amicon) and subjected to size exclusion, using a column (3×90 cm) packed with Sepharose S-75 resin (Pharmacia) pre-equilibrated with TBS, pH 7.2, containing 0.5 mM ethylene diamine tetraacetic acid (EDTA) and 5 mM dithiothreitol (DTT). […]

Test [2] deals with high-fat diet fed obese mice. Briefly: Effects of FXR agonists on diet induced obese mice. Type of test: in vivo, C57BL mice. Conditions: 10, 30, 100 mg/kg twice a day orally. How it is done:
Methods: Male 20 to 25 g C57BL mice (Charles River, Indianapolis, Ind.) were housed at 72° F. and 50% relative humidity with a 12 h light and dark cycle and fed with standard rodent chow (Purina 5001, Harlan Teklad, Indianapolis, Ind.) or a high-fat diet (TD93075, Harlan Teklad, Indianapolis, Ind.) for eight weeks. After three weeks, mice on high-fat diet were randomized to vehicle or treatment groups based on fasting glucose and body weight. Starting from the fifth week, mice were given either vehicle or the compound in Example 1 (10, 30, and 100 mg/kg) or the compound in Example 5 (10, 30, 100 mg/kg) twice a day orally. Mice on the standard rodent chow were also given vehicle as a control. Body composition was measured using the quantitative magnetic resonance (QMR) method before and at the end of compound treatment. […] Serum chemistry levels were measured using the Instrumentation Laboratory Ilab600TM clinical chemistry analyzer (Instrumentation Laboratory, Boston, Mass.).

As to `Cc1cccc(C)c1OCc1noc(C(C)C)c1COc1ccc(-c2ccc3nc(C(=O)O)ccc3c2)cc1` [Example 18, 6-[4-({[3-{[(2,6-Dimethylphenyl)oxy]methyl}-5-(1-methylethyl)-4-isoxazolyl]methyl}oxy)phenyl]-2-quinolinecarboxylic acid], the EC50 in test [1] is 102 to 1000 nM.
As to `CC(C)c1onc(-c2c(Cl)cccc2Cl)c1COc1ccc(-c2ccc3nc(C(=O)O)ccc3c2)cc1` [Example 1i, Sodium 6-[4-({[3-(2,6-dichlorophenyl)-5-(1-methylethyl)-4-isoxazolyl]methyl}oxy)phenyl]-2-quinolinecarboxylate], the “Activity (pEC50)” value in test [1] was “++ (++ indicates a pEC50 6-6.99)”.
Consider `CC(C)c1onc(CS(=O)(=O)c2c(Cl)cccc2Cl)c1COc1ccc(-c2ccc3nc(C(=O)O)ccc3c2)cc1` [Example 24, 6-[4-({[3-{[(2,6-Dichlorophenyl)sulfonyl]methyl}-5-(1-methylethyl)-4-isoxazolyl]methyl}oxy)phenyl]-2-quinolinecarboxylic acid], for which the EC50 in test [1] was 1020 to 10000 nM.
With `CC[C@H](C)c1onc(-c2c(Cl)cccc2Cl)c1COc1ccc(-c2ccc3nc(C(=O)O)ccc3c2)cc1` [Example 13, 6-{4-[({3-(2,6-Dichlorophenyl)-5-[(1S)-1-methylpropyl]-4-isoxazolyl}methyl)oxy]phenyl}-2-quinolinecarboxylic acid], the EC50 in test [1] is 102 to 1000 nM.
Still for that read-out and setting: for `CC(C)c1onc(-c2c(Cl)cccc2Cl)c1COc1ccc(-c2ccc3c(C(=O)O)nccc3c2)cc1` [Example 36, 6-[4-({[3-(2,6-Dichlorophenyl)-5-(1-methylethyl)-4-isoxazolyl]methyl}oxy)phenyl]-1-isoquinolinecarboxylic acid] the value was 102 to 1000 nM; for `O=C(O)c1cc2ccc(-c3ccc(OCc4c(-c5c(Cl)cccc5Cl)noc4C4CC4)cc3)cc2cn1` [Example 10, 7-[4-({[5-Cyclopropyl-3-(2,6-dichlorophenyl)-4-isoxazolyl]methyl}oxy)phenyl]-3-isoquinolinecarboxylic acid], 102 to 1000 nM.
On to `CC(C)c1onc(-c2c(Cl)cccc2Cl)c1COc1ccc(-c2ccc3nc(C(=O)O)ccc3c2)cc1` [Example 1, 6-[4-({[3-(2,6-Dichlorophenyl)-5-(1-methylethyl)-4-isoxazolyl]methyl}oxy)phenyl]-2-quinolinecarboxylic Acid], for which, in test [2], the serum glucose entry is on record as “decreased”. In addition, the body fat mass entry in test [2] (QMR) is “decreased”. In addition, in test [2] (serum), the NEFA entry is “decreased”, the cholesterol entry was “decreased”, the glycerol entry is given as “decreased” and the insulin result was “decreased”. Moreover, the triglyceride entry in test [2] (serum) is “decreased”.
With `CC(C)c1onc(COc2c(F)cc(F)cc2F)c1COc1ccc(-c2ccc3nc(C(=O)O)ccc3c2)cc1` [Example 19, 6-(4-{[(5-(1-Methylethyl)-3-{[(2,4,6-trifluorophenyl)oxy]methyl}-4-isoxazolyl)methyl]oxy}phenyl)-2-quinolinecarboxylic acid], the EC50 in test [1] is 102 to 1000 nM.
The same measure, in the same setting: under `CC(C)c1onc(-c2c(Cl)cccc2Cl)c1COc1ccc(-c2ccc3cc(C(=O)O)cnc3c2)cc1` [Example 2, 7-[4-({[3-(2,6-Dichlorophenyl)-5-(1-methylethyl)-4-isoxazolyl]methyl}oxy)phenyl]-3-quinolinecarboxylic acid] stands 102 to 1000 nM; under `O=C(O)c1ccc2cc(-c3ccc(OCc4c(-c5c(Cl)cncc5Cl)noc4C4CCC4)cc3)ccc2n1` [Example 8], 102 to 1000 nM.
The same measure, in the same setting: under `Cc1cc(C(=O)O)nc2ccc(-c3ccc(OCc4c(-c5c(Cl)cccc5Cl)noc4C(C)C)cc3)cc12` [Example 34, 6-[4-({[3-(2,6-Dichlorophenyl)-5-(1-methylethyl)-4-isoxazolyl]methyl}oxy)phenyl]-4-methyl-2-quinolinecarboxylic acid] stands below 100 nM; under `CC(C)c1onc(COc2c(Cl)cccc2Cl)c1COc1ccc(-c2ccc3nc(C(=O)O)ccc3c2)cc1` [Example 20, 6-[4-({[3-{[(2,6-Dichlorophenyl)oxy]methyl}-5-(1-methylethyl)-4-isoxazolyl]methyl}oxy)phenyl]-2-quinolinecarboxylic acid], 102 to 1000 nM.
On the same count and under the same terms, for `Cc1nc(C(=O)O)nc2ccc(-c3ccc(OCc4c(-c5c(Cl)cccc5Cl)noc4C(C)C)cc3)cc12` [Example 37, 6-[4-({[3-(2,6-Dichlorophenyl)-5-(1-methylethyl)-4-isoxazolyl]methyl}oxy)phenyl]-4-methyl-2-quinazolinecarboxylic acid] the value was 102 to 1000 nM; for `O=C(O)c1ccc2cc(-c3ccc(OCc4c(-c5c(Cl)cccc5Cl)noc4C4CC4)cc3)ccc2n1` [Example 11, 6-[4-({[5-Cyclopropyl-3-(2,6-dichlorophenyl)-4-isoxazolyl]methyl}oxy)phenyl]-2-quinolinecarboxylic acid], 102 to 1000 nM.
Regarding `CC(C)c1onc(-c2c(Cl)cccc2Cl)c1CCCOc1ccc(-c2ccc3nc(C(=O)O)ccc3c2)cc1` [Example 15, 6-[4-({3-[3-(2,6-Dichlorophenyl)-5-(1-methylethyl)-4-isoxazolyl]propyl}oxy)phenyl]-2-quinolinecarboxylic acid], the EC50 in test [1] is 102 to 1000 nM.
The same measure, in the same setting: under `Cc1cccc(C)c1OCc1noc(C(C)C)c1COc1ccc(-c2ccc3cc(C(=O)O)ncc3c2)cc1` [Example 16, 7-[4-({[3-{[(2,6-Dimethylphenyl)oxy]methyl}-5-(1-methylethyl)-4-isoxazolyl]methyl}oxy)phenyl]-3-isoquinolinecarboxylic acid] stands 102 to 1000 nM.
The same measure, in the same setting: under `CC(C)c1onc(-c2c(Cl)cccc2Cl)c1COc1ccc(-c2ccc3nc(C(=O)O)ccc3c2)cc1` [Example 1g, 6-[4-({[3-(2,6-Dichlorophenyl)-5-(1-methylethyl)-4-isoxazolyl]methyl}oxy)phenyl]-2-quinolinecarboxylic acid] stands 102 to 1000 nM; under `O=C(O)c1ccc2cc(-c3ccc(OCc4c(C5CCCC5)noc4C4CCCC4)cc3)ccc2n1` [Example 26, 6-(4-{[(3,5-Dicyclopentyl-4-isoxazolyl)methyl]oxy}phenyl)-2-quinolinecarboxylic acid], 102 to 1000 nM.
The same measure, in the same setting: for `CC(C)c1onc(CSc2c(Cl)cccc2Cl)c1COc1ccc(-c2ccc3nc(C(=O)O)ccc3c2)cc1` [Example 22, 6-[4-({[3-{[(2,6-Dichlorophenyl)thio]methyl}-5-(1-methylethyl)-4-isoxazolyl]methyl}oxy)phenyl]-2-quinolinecarboxylic acid] the value was 102 to 1000 nM.
